Laboratory results from PubChem BioAssay AID2060886 (Molecular Pharmacology Branch, DTP, NCI, 2025).
Several values for one entry are separate records, joined by “and”; a condition that tells them apart may be missing. Equal entries are not always repeated. One block for each molecule: values may come before it.

Test system: 653999-131-R-J2-PDC complex spheroids, growth inhibition
Experiment: Anticancer human tumor 653999-131-R-J2-PDC patient-derived lung adenocarcinoma cell line growth inhibition [RAS]
Conditions: for viability, T/C: stronger effect = lower value
Text: RAS pathway inhibitors in Combinations in Complex Spheroids
A high-throughput screen of multi-cell type tumor spheroids was designed to identify active combinations of RAS pathway inhibitors and targeted small molecules. Complex spheroids include a stromal component modeled by human endothelial cells (HUVEC) and fibroblasts modeled by human mesenchymal stem cells (MSCs). The concentration ranges selected for each drug and investigational agent were based upon clinically achievable concentrations if the clinical Cmax of the agent was known.
Compounds. The drugs and investigational agents: abemaciclib (NSC768073), cobimetinib (NSC768068), divarasib (GDC6063, NSC841802), docetaxel (NSC628503), GDC-1971 (RLY-1971, NSC841576), gemcitabine (NSC613327), inavolisib (NSC800729), ipatasertib (NSC767898), KB-0742 (NSC834161), MRTX-1133 (NSC836407), osimertinib (NSC779217), RMC-4630 (NSC839698), RMC-6236 (NSC851965), RMC-6291 (NSC852671), Ro-3306 (NSC812927), sapanisertib (NSC764658), SN-38 (NSC673596), staurosporine (NSC755774), SY5609 (NSC837396), and tovorafenib (DAY101, NSC766906), were obtained from the National Cancer Institute (NCI) Developmental Therapeutics Program Chemical Repository. The FDA-approved anticancer drug set is available from the NCI Developmental Therapeutics Program. […] The stock solutions were prepared in dimethyl sulfoxide (DMSO, Sigma-Aldrich, St. Louis, MO, cat. D2650) at 800-fold the tested concentration and stored at -70 degrees C prior to their use. All drugs and investigational agents were tested over a range starting from a high concentration at or near the clinical Cmax and decreasing in half-log increments. If the clinical Cmax for an agent had not been determined, the highest concentration tested was 10 microM.
Cell Culture. All cells were maintained in an incubator at 37 degrees C and 5% CO2 with 95% humidity. The PDC lines were cultured according to standard operating procedures established by the NCI PDMR. All PDCs were thawed and cultured in Matrigel-coated flasks prepared with a working solution of 1X Ham's F-12 nutrient mix, without supplementation (Invitrogen, Waltham, MA, cat. 11765054), 100 U/mL penicillin-streptomycin (Invitrogen, cat. 15140122), and 2.5% Matrigel (Corning Inc., Corning, NY, cat. 354248) for the first three passages. The 362531-283-R-J2-PDC and 782815-120-R-J1-PDC lines were cultured in 6C/Colon 1B media, which includes advanced DMEM/F-12 (Thermo Fisher Scientific, cat. 12634028), 10 mM HEPES (Thermo Fisher Scientific, cat. 15630080), 1X GlutaMAX supplement (Thermo Fisher Scientific, cat. 35050061), 0.1 mg/mL primocin (InvivoGen, San Diego, CA, cat. ant-pm-2), 10% defined fetal bovine serum, heat inactivated (HyClone Laboratories Inc., Logan, UT, cat. SH30070.03HI), 50% L-WRN conditioned media (ATCC, cat. CRL-3276), 1.25 mM N-Acetyl-L-cysteine (Sigma-Aldrich, cat. A9165), 10 mM nicotinamide (Sigma-Aldrich, cat. N0636), 1X B-27 supplement (Thermo Fisher Scientific, cat. 17504044), 1X N-2 supplement (Thermo Fisher Scientific, cat. 17502048), 50 ng/mL human EGF (Thermo Fisher Scientific, cat. PHG0311), and 10 microM Y-27632 dihydrochloride (Tocris Bioscience, cat. 1254). The K12877-001-R-J1-PDC line was cultured in 6I media, which includes all 6C/Colon 1B media plus 10 ng/mL human FGF-10 (PeproTech, cat. 100-26), 1 ng/mL human FGF-2 (PeproTech, cat. 100-18B), 1 µM prostaglandin E2 (Tocris Bioscience, cat. 2296), […] hydrocortisone (Sigma-Aldrich, cat. H4001), and […] bovine insulin (Sigma-Aldrich, cat. I6634). The K86415-001-R-J1-PDC line was cultured in 6D media, which includes all 6C/Colon 1B media components minus the L-WRN conditioned media. The 485176-168-R4-J1-PDC was cultured in PANC media, which includes all 6C/Colon 1B media plus 100 ng/mL human FGF-10 (PeproTech, cat. 100-26), 500 nM SB-431542 (Selleckchem, cat. S1067), and 10 nM gastrin (Tocris Bioscience, cat. 3006). […]
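Note: spheroids exposed to the agents for seven days before the readout.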

IC50 (curve of compound): > 1000 nM and 291 nM
Compound: C=CC(=O)Nc1cc(Nc2nccc(-c3cn(C)c4ccccc34)n2)c(OC)cc1N(C)CCN(C)C
viability, T/C (compound 0.00316 µM): 98% [middle of 4 runs]
viability, T/C (compound 0.01 µM): 89.8% [middle of 4 runs]
viability, T/C (compound 0.0316 µM): 94.7% [middle of 4 runs]
viability, T/C (compound 1 µM): 62.9% [middle of 4 runs]

IC50 (curve of first compound, second compound 0.00316 µM): 2050 nM
IC50 (curve of first compound, second compound 0.01 µM): 1970 nM
IC50 (curve of first compound, second compound 0.0316 µM): 2030 nM
IC50 (curve of first compound, second compound 0.1 µM): 2120 nM
IC50 (curve of first compound, second compound 0.316 µM): 1910 nM
IC50 (curve of first compound, second compound 1 µM): 2100 nM
Compound: CCC(CC)c1cc(NC2CCC(N)C2)n2nccc2n1 (centres undefined) + C=CC(=O)N1CCN(c2nc(OCC3CCCN3C)nc3c(F)c(-c4nc(N)cc(C)c4C(F)(F)F)c(Cl)cc23)C(C)C1
viability, T/C (second compound 0.00316 µM, first compound 0.0316 µM): 107%
viability, T/C (second compound 0.00316 µM, first compound 0.1 µM): 109%
viability, T/C (second compound 0.00316 µM, first compound 0.316 µM): 95.5%
viability, T/C (second compound 0.00316 µM, first compound 1 µM): 101%
viability, T/C (second compound 0.00316 µM, first compound 3.16 µM): 16.5%
viability, T/C (second compound 0.00316 µM, first compound 10 µM): 21.7%
viability, T/C (second compound 0.01 µM, first compound 0.0316 µM): 91.2%
viability, T/C (second compound 0.01 µM, first compound 0.1 µM): 92.2%
viability, T/C (second compound 0.01 µM, first compound 0.316 µM): 104%
viability, T/C (second compound 0.01 µM, first compound 1 µM): 99%
viability, T/C (second compound 0.01 µM, first compound 3.16 µM): 16.9%
viability, T/C (second compound 0.01 µM, first compound 10 µM): 18.1%
viability, T/C (second compound 0.0316 µM, first compound 0.0316 µM): 93.3%
viability, T/C (second compound 0.0316 µM, first compound 0.1 µM): 117%
viability, T/C (second compound 0.0316 µM, first compound 0.316 µM): 87.4%
viability, T/C (second compound 0.0316 µM, first compound 1 µM): 94.3%
viability, T/C (second compound 0.0316 µM, first compound 3.16 µM): 18.2%
viability, T/C (second compound 0.0316 µM, first compound 10 µM): 26%
viability, T/C (second compound 0.1 µM, first compound 0.0316 µM): 99.9%
viability, T/C (second compound 0.1 µM, first compound 0.1 µM): 95.4%
viability, T/C (second compound 0.1 µM, first compound 0.316 µM): 112%
viability, T/C (second compound 0.1 µM, first compound 1 µM): 113%
viability, T/C (second compound 0.1 µM, first compound 3.16 µM): 16.1%
viability, T/C (second compound 0.1 µM, first compound 10 µM): 25.5%
viability, T/C (second compound 0.316 µM, first compound 0.0316 µM): 123%
viability, T/C (second compound 0.316 µM, first compound 0.1 µM): 100%
viability, T/C (second compound 0.316 µM, first compound 0.316 µM): 93.7%
viability, T/C (second compound 0.316 µM, first compound 1 µM): 89.4%
viability, T/C (second compound 0.316 µM, first compound 3.16 µM): 14.8%
viability, T/C (second compound 0.316 µM, first compound 10 µM): 23.8%
viability, T/C (second compound 1 µM, first compound 0.0316 µM): 114%
viability, T/C (second compound 1 µM, first compound 0.1 µM): 97.2%
viability, T/C (second compound 1 µM, first compound 0.316 µM): 111%
viability, T/C (second compound 1 µM, first compound 1 µM): 116%
viability, T/C (second compound 1 µM, first compound 3.16 µM): 13.8%
viability, T/C (second compound 1 µM, first compound 10 µM): 20.9%

IC50 (curve of first compound, second compound 0.000949 µM): > 10000 nM
IC50 (curve of first compound, second compound 0.003 µM): 65.7 nM
IC50 (curve of first compound, second compound 0.00949 µM): < 31.6 nM
IC50 (curve of first compound, second compound 0.03 µM): < 31.6 nM
IC50 (curve of first compound, second compound 0.0949 µM): < 31.6 nM
IC50 (curve of first compound, second compound 0.3 µM): < 31.6 nM
Compound: NC1c2ccccc2OC12CCN(c1cnc3c(N4CCCc5ncccc54)n[nH]c3n1)CC2 (centres undefined) + CCn1c(-c2cc(N3CCN(C)CC3)cnc2C(C)OC)c2c3cc(ccc31)-c1csc(n1)CC(NC(=O)C1CC1C)C(=O)N1CCCC(N1)C(=O)OCC(C)(C)C2
viability, T/C (second compound 0.000949 µM, first compound 0.0316 µM): 67%
viability, T/C (second compound 0.000949 µM, first compound 0.1 µM): 60.7%
viability, T/C (second compound 0.000949 µM, first compound 0.316 µM): 55.2%
viability, T/C (second compound 0.000949 µM, first compound 1 µM): 59.3%
viability, T/C (second compound 0.000949 µM, first compound 3.16 µM): 65.6%
viability, T/C (second compound 0.000949 µM, first compound 10 µM): 63.4%
viability, T/C (second compound 0.003 µM, first compound 0.0316 µM): 60.7%
viability, T/C (second compound 0.003 µM, first compound 0.1 µM): 40.6%
viability, T/C (second compound 0.003 µM, first compound 0.316 µM): 40.3%
viability, T/C (second compound 0.003 µM, first compound 1 µM): 49.5%
viability, T/C (second compound 0.003 µM, first compound 3.16 µM): 41.3%
viability, T/C (second compound 0.003 µM, first compound 10 µM): 42.1%
viability, T/C (second compound 0.00949 µM, first compound 0.0316 µM): 40.9%
viability, T/C (second compound 0.00949 µM, first compound 0.1 µM): 34%
viability, T/C (second compound 0.00949 µM, first compound 0.316 µM): 28.5%
viability, T/C (second compound 0.00949 µM, first compound 1 µM): 33.9%
viability, T/C (second compound 0.00949 µM, first compound 3.16 µM): 24.7%
viability, T/C (second compound 0.00949 µM, first compound 10 µM): 24%
viability, T/C (second compound 0.03 µM, first compound 0.0316 µM): 24.1%
viability, T/C (second compound 0.03 µM, first compound 0.1 µM): 20.3%
viability, T/C (second compound 0.03 µM, first compound 0.316 µM): 12.9%
viability, T/C (second compound 0.03 µM, first compound 1 µM): 9.46%
viability, T/C (second compound 0.03 µM, first compound 3.16 µM): 12.2%
viability, T/C (second compound 0.03 µM, first compound 10 µM): 11.1%
viability, T/C (second compound 0.0949 µM, first compound 0.0316 µM): 17.6%
viability, T/C (second compound 0.0949 µM, first compound 0.1 µM): 17%
viability, T/C (second compound 0.0949 µM, first compound 0.316 µM): 12.7%
viability, T/C (second compound 0.0949 µM, first compound 1 µM): 7.56%
viability, T/C (second compound 0.0949 µM, first compound 3.16 µM): 5.76%
viability, T/C (second compound 0.0949 µM, first compound 10 µM): 6.14%
viability, T/C (second compound 0.3 µM, first compound 0.0316 µM): 16.5%
viability, T/C (second compound 0.3 µM, first compound 0.1 µM): 10.2%
viability, T/C (second compound 0.3 µM, first compound 0.316 µM): 7.36%
viability, T/C (second compound 0.3 µM, first compound 1 µM): 6.93%
viability, T/C (second compound 0.3 µM, first compound 3.16 µM): 7.17%
viability, T/C (second compound 0.3 µM, first compound 10 µM): 4.26%
